Experiments:
Type in all cases: in vivo
Wild Oats [1] = assay: post-emergence herbicide test; conditions: Avena fatua, post-emergence, 0.25 lb/A; read-out: % plant inhibition
Outline: (§1)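 Seeds sown on compacted topsoil, covered, leveled; greenhouse, overhead or subirrigation. Plants 2–3 wk old → atomizer spray, 170.3 kPa, 1870 L/Ha, ~0.4% v/v emulsifier. Readout: % inhibition.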

Downy Brome [2] = assay: post-emergence herbicide test; conditions: Bromus tectorum, post-emergence, 0.25 lb/A; read-out: % plant inhibition
Outline: as §1

Cocklebur [3] = assay: post-emergence herbicide test; conditions: Xanthium strumarium, post-emergence, 0.25 lb/A; read-out: % plant inhibition
Outline: as §1

Bedstraw Catchweed [4] = assay: post-emergence herbicide test; conditions: Galium aparine, post-emergence, 0.25 lb/A; read-out: % plant inhibition
Outline: as §1

Corn [5] = assay: post-emergence herbicide test; conditions: Zea mays, post-emergence, 0.25 lb/A; read-out: % plant inhibition
Outline: as §1

Barnyardgrass [6] = assay: post-emergence herbicide test; conditions: Echinochloa crus-galli, post-emergence, 0.25 lb/A; read-out: % plant inhibition
Outline: as §1

Morning Glory [7] = assay: post-emergence herbicide test; conditions: Ipomoea, post-emergence, 0.25 lb/A; read-out: % plant inhibition
Outline: as §1

Common Chickweed [8] = assay: post-emergence herbicide test; conditions: post-emergence, 0.25 lb/A; read-out: % plant inhibition
Outline: as §1

Soybean [9] = assay: post-emergence herbicide test; conditions: Glycine max, post-emergence, 0.25 lb/A; read-out: % plant inhibition
Outline: as §1

Giant Foxtail [10] = assay: post-emergence herbicide test; conditions: Setaria faberi, post-emergence, 0.25 lb/A; read-out: % plant inhibition
Outline: as §1

Seedling Johnsongrass [11] = assay: post-emergence herbicide test; conditions: Sorghum halepense, post-emergence, 0.25 lb/A; read-out: % plant inhibition
Outline: as §1

Birdseye Speedwell [12] = assay: post-emergence herbicide test; conditions: post-emergence, 0.25 lb/A; read-out: % plant inhibition
Outline: as §1

Blackgrass [13] = assay: post-emergence herbicide test; conditions: Alopecurus myosuroides, post-emergence, 0.25 lb/A; read-out: % plant inhibition
Outline: as §1

Rape [14] = assay: post-emergence herbicide test; conditions: post-emergence, 0.25 lb/A; read-out: % plant inhibition
Outline: as §1

Wheat [15] = assay: post-emergence herbicide test; conditions: Triticum aestivum, post-emergence, 0.25 lb/A; read-out: % plant inhibition
Outline: as §1

Velvetleaf [16] = assay: post-emergence herbicide test; conditions: Abutilon theophrasti, post-emergence, 0.25 lb/A; read-out: % plant inhibition
Outline: as §1

Green Foxtail [17] = assay: post-emergence herbicide test; conditions: Setaria viridis, post-emergence, 0.25 lb/A; read-out: % plant inhibition
Outline: as §1

Wild Oats [18] = assay: pre-emergence herbicide test; conditions: Avena fatua, pre-emergence, 0.25 lb/A; read-out: % plant inhibition
Outline: (§2)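 Known amounts of active ingredient went into the cover soil over seeds sown in pans, either before or after the layer was spread. An initial 1/4 inch overhead irrigation was given in some cases; otherwise pans were subirrigated. Rating was % inhibition at ~14 days.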

Downy Brome [19] = assay: pre-emergence herbicide test; conditions: Bromus tectorum, pre-emergence, 0.25 lb/A; read-out: % plant inhibition
Outline: as §2

Cocklebur [20] = assay: pre-emergence herbicide test; conditions: Xanthium strumarium, pre-emergence, 0.25 lb/A; read-out: % plant inhibition
Outline: as §2

Bedstraw Catchweed [21] = assay: pre-emergence herbicide test; conditions: Galium aparine, pre-emergence, 0.25 lb/A; read-out: % plant inhibition
Outline: as §2

Corn [22] = assay: pre-emergence herbicide test; conditions: Zea mays, pre-emergence, 0.25 lb/A; read-out: % plant inhibition
Outline: as §2

Barnyardgrass [23] = assay: pre-emergence herbicide test; conditions: Echinochloa crus-galli, pre-emergence, 0.25 lb/A; read-out: % plant inhibition
Outline: as §2

Morning Glory [24] = assay: pre-emergence herbicide test; conditions: Ipomoea, pre-emergence, 0.25 lb/A; read-out: % plant inhibition
Outline: as §2

Common Chickweed [25] = assay: pre-emergence herbicide test; conditions: pre-emergence, 0.25 lb/A; read-out: % plant inhibition
Outline: as §2

Soybean [26] = assay: pre-emergence herbicide test; conditions: Glycine max, pre-emergence, 0.25 lb/A; read-out: % plant inhibition
Outline: as §2

Giant Foxtail [27] = assay: pre-emergence herbicide test; conditions: Setaria faberi, pre-emergence, 0.25 lb/A; read-out: % plant inhibition
Outline: as §2

Seedling Johnsongrass [28] = assay: pre-emergence herbicide test; conditions: Sorghum halepense, pre-emergence, 0.25 lb/A; read-out: % plant inhibition
Outline: as §2

Birdseye Speedwell [29] = assay: pre-emergence herbicide test; conditions: pre-emergence, 0.25 lb/A; read-out: % plant inhibition
Outline: as §2

Blackgrass [30] = assay: pre-emergence herbicide test; conditions: Alopecurus myosuroides, pre-emergence, 0.25 lb/A; read-out: % plant inhibition
Outline: as §2

Rape [31] = assay: pre-emergence herbicide test; conditions: pre-emergence, 0.25 lb/A; read-out: % plant inhibition
Outline: as §2

Wheat [32] = assay: pre-emergence herbicide test; conditions: Triticum aestivum, pre-emergence, 0.25 lb/A; read-out: % plant inhibition
Outline: as §2

Velvetleaf [33] = assay: pre-emergence herbicide test; conditions: Abutilon theophrasti, pre-emergence, 0.25 lb/A; read-out: % plant inhibition
Outline: as §2

Green Foxtail [34] = assay: pre-emergence herbicide test; conditions: Setaria viridis, pre-emergence; 0.25 lb/A; read-out: % plant inhibition
Outline: as §2

SMILES	inhibition at 280.212 g/ha (Wild Oats [1]) [%]	inhibition at 280.212 g/ha (Downy Brome [2]) [%]	inhibition at 280.212 g/ha (Cocklebur [3]) [%]	inhibition at 280.212 g/ha (Bedstraw Catchweed [4]) [%]	inhibition at 280.212 g/ha (Corn [5]) [%]	inhibition at 280.212 g/ha (Barnyardgrass [6]) [%]	inhibition at 280.212 g/ha (Morning Glory [7]) [%]	inhibition at 280.212 g/ha (Common Chickweed [8]) [%]	inhibition at 280.212 g/ha (Soybean [9]) [%]	inhibition at 280.212 g/ha (Giant Foxtail [10]) [%]	inhibition at 280.212 g/ha (Seedling Johnsongrass [11]) [%]	inhibition at 280.212 g/ha (Birdseye Speedwell [12]) [%]	inhibition at 280.212 g/ha (Blackgrass [13]) [%]	inhibition at 280.212 g/ha (Rape [14]) [%]	inhibition at 280.212 g/ha (Wheat [15]) [%]	inhibition at 280.212 g/ha (Velvetleaf [16]) [%]	inhibition at 280.212 g/ha (Green Foxtail [17]) [%]	inhibition at 280.212 g/ha (Wild Oats [18]) [%]	inhibition at 280.212 g/ha (Downy Brome [19]) [%]	inhibition at 280.212 g/ha (Cocklebur [20]) [%]	further results
CCOC(=O)CCCOC(=O)c1cc(-c2nn(C)c(C(F)(F)F)c2C)c(F)cc1Cl [Compound 24]	25	25	85	65	10	15	75	90	45	15	20	95	25	25	20	99	20	15	30	40	inhibition at 280.212 g/ha (Bedstraw Catchweed [21]): 95%; inhibition at 280.212 g/ha (Corn [22]): 0%; inhibition at 280.212 g/ha (Barnyardgrass [23]): 20%; inhibition at 280.212 g/ha (Morning Glory [24]): 0%; inhibition at 280.212 g/ha (Common Chickweed [25]): 100%; inhibition at 280.212 g/ha (Soybean [26]): 0%; inhibition at 280.212 g/ha (Giant Foxtail [27]): 35%; inhibition at 280.212 g/ha (Seedling Johnsongrass [28]): 10%; inhibition at 280.212 g/ha (Birdseye Speedwell [29]): 100%; inhibition at 280.212 g/ha (Blackgrass [30]): 50%; inhibition at 280.212 g/ha (Rape [31]): 95%; inhibition at 280.212 g/ha (Wheat [32]): 7%; inhibition at 280.212 g/ha (Velvetleaf [33]): 60%; inhibition at 280.212 g/ha (Green Foxtail [34]): 100%
Cc1c(-c2cc(C(=O)OC3CCOC3)c(Cl)cc2F)nn(C)c1C(F)(F)F (centres unmarked) [Compound 25]	35	50	90	65	20	85	90	90	60	75	85	95	40	40	16	100	65	90	10	35	inhibition at 280.212 g/ha (Bedstraw Catchweed [21]): 85%; inhibition at 280.212 g/ha (Corn [22]): 45%; inhibition at 280.212 g/ha (Barnyardgrass [23]): 95%; inhibition at 280.212 g/ha (Morning Glory [24]): 55%; inhibition at 280.212 g/ha (Common Chickweed [25]): 100%; inhibition at 280.212 g/ha (Soybean [26]): 5%; inhibition at 280.212 g/ha (Giant Foxtail [27]): 100%; inhibition at 280.212 g/ha (Seedling Johnsongrass [28]): 99%; inhibition at 280.212 g/ha (Birdseye Speedwell [29]): 100%; inhibition at 280.212 g/ha (Blackgrass [30]): 98%; inhibition at 280.212 g/ha (Rape [31]): 35%; inhibition at 280.212 g/ha (Wheat [32]): 0%; inhibition at 280.212 g/ha (Velvetleaf [33]): 80%; inhibition at 280.212 g/ha (Green Foxtail [34]): 100%
